Assay results taken from ChEMBL document CHEMBL4325823 (Medchemcomm, 2018).

Legend:
[1] = Inhibition of bacterial NDM1 expressed in Escherichia coli BL21(DE3) using nitrocefin as substrate measured after 5 to 10 mins; design: species or system Bacteria
[2] = Inhibition of bacterial VIM2 expressed in Escherichia coli BL21(DE3) using nitrocefin as substrate measured after 5 to 10 mins; design: species or system Bacteria
[3] = Binding affinity to Zn2+ by isothermal calorimetric method
Beta-lactamase = Beta-lactamase (Acinetobacter baumannii, UniProt Q8RLA6); test: Inhibition of Acinetobacter baumannii OXA-24
Acinetobacter baumannii [4] = test: Inhibition of beta lactamase in Acinetobacter baumannii assessed as potentiation of imipenem-induced antibacterial activity by measuring fold reduction in imipenem MIC at 4 ug/ml
Acinetobacter baumannii [5] = test: Inhibition of beta lactamase in Acinetobacter baumannii assessed as potentiation of sulbactam-induced antibacterial activity by measuring sulbactam MIC90 at 4 ug/ml (reference value: 64 ug/ml)
Escherichia coli = test: Inhibition of ESBL in Escherichia coli clinical isolate assessed as potentiation of imipenem-induced antibacterial activity by measuring imipenem MIC at 4 ug/ml
Klebsiella pneumoniae [6] = test: Inhibition of ESBL in Klebsiella pneumoniae clinical isolate assessed as potentiation of imipenem-induced antibacterial activity by measuring imipenem MIC at 4 ug/ml
Enterobacter sp. = test: Inhibition of ESBL in Enterobacter sp. clinical isolate assessed as potentiation of imipenem-induced antibacterial activity by measuring imipenem MIC at 4 ug/ml
Pseudomonas aeruginosa [7] = test: Inhibition of ESBL in Pseudomonas aeruginosa clinical isolate assessed as potentiation of imipenem-induced antibacterial activity by measuring imipenem MIC at 4 ug/ml
Klebsiella pneumoniae [8] = test: Inhibition of beta lactamase KPC in Klebsiella pneumoniae clinical isolate assessed as potentiation of imipenem-induced antibacterial activity by measuring imipenem MIC90 at 4 ug/ml (reference value: 16 ug/ml)
Pseudomonas aeruginosa [9] = test: Inhibition of beta lactamase KPC in imipenem-resistant Pseudomonas aeruginosa clinical isolate assessed as potentiation of imipenem-induced antibacterial activity by measuring imipenem MIC90 at 4 ug/ml (reference value: 8 ug/ml)
Klebsiella pneumoniae [10] = test: Inhibition of beta lactamase KPC in Klebsiella pneumoniae clinical isolate assessed as potentiation of imipenem-induced antibacterial activity by measuring imipenem MIC50 at 4 ug/ml (Rvb >16 ug/ml)
Pseudomonas aeruginosa [11] = test: Inhibition of beta lactamase KPC in imipenem-resistant Pseudomonas aeruginosa clinical isolate assessed as potentiation of imipenem-induced antibacterial activity by measuring imipenem MIC50 at 4 ug/ml (Rvb >16 ug/ml)
[12] = Inhibition of bacterial Class A beta-lactamase; design: species or system Bacteria
[13] = Inhibition of bacterial beta lactamase class C; design: species or system Bacteria
[14] = Inhibition of bacterial NDM1; design: species or system Bacteria
Klebsiella pneumoniae [15] = test: Inhibition of beta lactamase KPC in Klebsiella pneumoniae assessed as potentiation of meropenem-induced antibacterial activity by measuring fold reduction in meropenem MIC
Klebsiella pneumoniae [16] = test: Inhibition of beta lactamase class C in Klebsiella pneumoniae assessed as potentiation of meropenem-induced antibacterial activity by measuring fold reduction in meropenem MIC
Klebsiella pneumoniae [17] = test: Inhibition of beta lactamase OXA in Klebsiella pneumoniae assessed as potentiation of meropenem-induced antibacterial activity by measuring fold reduction in meropenem MIC
Pseudomonas aeruginosa [18] = test: Inhibition of beta lactamase in Pseudomonas aeruginosa assessed as potentiation of ceftazidime-induced antibacterial activity by measuring ceftazidime MIC at 4 ug/ml (reference value: 64 ug/ml)
Pseudomonas aeruginosa [19] = test: Inhibition of beta lactamase in Pseudomonas aeruginosa assessed as potentiation of imipenem-induced antibacterial activity by measuring […] MIC at 4 ug/ml (reference value: 16 ug/ml)
Enterobacteriaceae [20] = test: Inhibition of beta lactamase KPC in Enterobacteriaceae assessed as potentiation of ceftazidime-induced antibacterial activity by measuring ceftazidime MIC by broth microdilution method
Enterobacteriaceae [21] = test: Inhibition of beta lactamase CTX-M-14 in CTX-M-15 deficient Enterobacteriaceae assessed as potentiation of ceftazidime-induced antibacterial activity by measuring ceftazidime MIC by broth microdilution method
Enterobacteriaceae [22] = test: Inhibition of beta lactamase SHV in Enterobacteriaceae assessed as potentiation of ceftazidime-induced antibacterial activity by measuring ceftazidime MIC by broth microdilution method
Enterobacteriaceae [23] = test: Inhibition of beta lactamase CMY-2 in CTX-M-15/CTX-M-14/KPC/NDM1 deficient Enterobacteriaceae assessed as potentiation of ceftazidime-induced antibacterial activity by measuring ceftazidime MIC by broth microdilution method
Enterobacteriaceae [24] = test: Inhibition of beta lactamase CTX-M-15 in KPC/NDM1 deficient Enterobacteriaceae assessed as potentiation of ceftazidime-induced antibacterial activity by measuring ceftazidime MIC by broth microdilution method

Chain of Beta-lactamase (Q8RLA6 whole entry): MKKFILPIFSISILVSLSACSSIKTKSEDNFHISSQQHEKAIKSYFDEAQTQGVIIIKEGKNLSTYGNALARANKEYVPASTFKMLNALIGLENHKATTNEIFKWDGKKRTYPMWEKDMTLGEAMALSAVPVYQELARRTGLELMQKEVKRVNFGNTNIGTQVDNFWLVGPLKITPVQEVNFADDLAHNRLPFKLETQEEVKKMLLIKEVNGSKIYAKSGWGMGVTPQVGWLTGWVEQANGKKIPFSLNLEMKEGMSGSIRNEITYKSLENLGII

SMILES: N[C@@H](CN[C@@H](CN[C@@H](CC(=O)O)C(=O)O)C(=O)O)C(=O)O
- IC50 [1]: 4 µM
- IC50 [2]: 9.6 µM
- Kd [3]: 200 nM

SMILES: CC1=C[C@@H]2CN(C(=O)N2OS(=O)(=O)O)[C@@H]1C(N)=O [DURLOBACTAM]
- IC50 (Beta-lactamase): 685 nM
- fold change (FC) (Acinetobacter baumannii [4]): 8
- MIC90 (Acinetobacter baumannii [5]): 4 µg/mL

SMILES: O=C(NC1CCNCC1)[C@@H]1CC[C@@H]2CN1C(=O)N2OS(=O)(=O)O
- MIC50 (Escherichia coli): 0.25 µg/mL
- MIC90 (Escherichia coli): 0.25 µg/mL
- MIC50 (Klebsiella pneumoniae [6]): 0.25 µg/mL
- MIC90 (Klebsiella pneumoniae [6]): 0.25 µg/mL
- MIC50 (Enterobacter sp.): 0.5 µg/mL
- MIC90 (Enterobacter sp.): 0.25 µg/mL
- MIC50 (Pseudomonas aeruginosa [7]): 2 µg/mL
- MIC90 (Pseudomonas aeruginosa [7]): 0.5 µg/mL
- MIC90 (Klebsiella pneumoniae [8]): 0.25 µg/mL
- MIC90 (Pseudomonas aeruginosa [9]): 1 µg/mL
- MIC50 (Klebsiella pneumoniae [10]): 1 µg/mL
- MIC50 (Pseudomonas aeruginosa [11]): 2 µg/mL

SMILES: NCCONC(=O)[C@@H]1CC2(CC2)[C@@H]2CN1C(=O)N2OS(=O)(=O)O
- IC50 [12]: < 19 nM
- IC50 [13]: < 19 nM

SMILES: O=C(NOC1CCNC1)[C@@H]1CC2(CC2)[C@@H]2CN1C(=O)N2OS(=O)(=O)O (stereo partly drawn)
- IC50 [12]: < 19 nM
- IC50 [13]: < 19 nM

SMILES: O=C(Cc1cn2ccsc2n1)NNC(=S)Nc1ccc(OCc2ccccc2)cc1
- IC50 [14]: 35 nM

SMILES: NC[C@H]1CC([C@@H]2CC[C@@H]3CN2C(=O)N3OS(=O)(=O)O)=NO1
- fold change (FC) (Klebsiella pneumoniae [15]): < 1024
- fold change (FC) (Klebsiella pneumoniae [16]): < 1024
- fold change (FC) (Klebsiella pneumoniae [17]): < 1024

SMILES: NC(=O)[C@@H]1CC[C@@H]2CN1C(=O)N2OS(=O)(=O)O
- MIC90 (Pseudomonas aeruginosa [18]): 8 µg/mL
- MIC90 (Pseudomonas aeruginosa [19]): 2 µg/mL
- MIC90 (Enterobacteriaceae [20]): < 2 µg/mL
- MIC90 (Enterobacteriaceae [21]): < 2 µg/mL
- MIC90 (Enterobacteriaceae [22]): < 2 µg/mL
- MIC90 (Enterobacteriaceae [23]): < 2 µg/mL
- MIC90 (Enterobacteriaceae [24]): < 2 µg/mL
